Data: article PMC8954547, “Nonpeptidic Z360-Analogs Tagged with Trivalent Radiometals as Anti-CCK2R Cancer Theranostic Agents: A Preclinical Study” (Pharmaceutics, 2022)

How the values were obtained:
[1] = Radioligand stability in mice (radio-HPLC of blood and urine); format: in vivo; conditions: mean ± SD
Method: The formation of radiometabolites which can be detected in the blood was tested in blood samples collected 5 min post-injection (pi) of each of the radioligands [^67Ga]Ga/[^111In]In/[^177Lu]Lu-GAS1/3 and [^67Ga]Ga/[^111In]In-GAS2. For this study, in-house male Swiss albino mice (body weight: 30 ± 5 g, provided by the NCSR “Demokritos” Animal House) were used in groups of three. The animals received, through the tail vein, a 100-μL bolus containing each radioligand tested (2.5–3 nmol of the total conjugate in vehicle: saline/EtOH 9/1 v/v, corresponding to: up to 11 MBq for In-111, up to 13 MBq for Ga-67 and up to 74 MBq for Lu-177). Mice were euthanized, and blood was collected directly from the heart using a prechilled penicillin syringe and transferred in a prechilled EDTA-containing Eppendorf Protein LoBind® tube on ice (40 µL, 50 mM Na2EDTA solution). After centrifugation (10 min, 2000× g/4 °C, in a Hettich, Universal 320R, centrifuge), the blood plasma was collected, mixed with chilled MeCN in a 1/1 v/v ratio and centrifuged again (10 min, 15,000× g/4 °C). Supernatants were collected and concentrated to a small volume (≈50–100 μL) under a gentle N2-flux at 40 °C. They were then diluted with physiological saline (≈400 μL) and filtered through a Millex GV filter (0.22 μm, 13 mm Ø, Millipore, Milford, CT, USA). Aliquots of the filtrate were analyzed by radio-RP-HPLC using a Waters Symmetry Shield RP18 cartridge column (5 μm, 3.9 mm × 20 mm) eluted at a flow rate of 1.0 mL/min with the following gradient: 100% A/0% B to 55% A/45% B in 45 min; A = 0.1% aqueous TFA (v/v) and B = MeCN (system 2). The elution time (tR) of each parent radioligand was determined by coinjection of blood samples with an aliquot of the labeling solution on the HPLC column. Results were calculated as the average percentage of intact radioligand ± SD derived from three independent experiments.
Following the same injection protocol, radioligands were administered in additional groups of mice, but this time animals were euthanized 30 min pi. The urine was immediately collected from the bladder using a prechilled syringe and transferred as before in a prechilled EDTA-containing Eppendorf Protein LoBind® centrifuge tube on ice (40 µL, 50 mM Na2EDTA solution) and 0.1 mL of physiological saline. Urine proteins were precipitated by adding chilled MeCN in a 1/1 v/v ratio followed by a 10 min centrifugation step (15,000× g/4 °C). The supernatant was then collected and treated following the blood sample workup procedure. Aliquots of the Millex-GV filtrate (containing >90% of total urine activity) were analyzed by radio-HPLC, adopting the aforementioned conditions. Results were calculated as the average percentage of intact radioligand ± SD derived from three independent experiments.

[2] = tested on: SCID mice bearing twin HEK293-CCK2i4svR and wtHEK293 tumors; assay: Biodistribution in SCID mice bearing twin HEK293-CCK2i4svR and wtHEK293 xenografts; format: in vivo
Method: Inocula containing a suspension of freshly harvested HEK293-CCK2i4svR/wtHEK293 cells (150 μL, 1.8 × 10^7/1.4 × 10^7 cells, respectively, in normal saline) were subcutaneously (sc) injected in the right and left flanks of male SCID mice (24.5 ± 2.3 g body weight, six weeks of age on arrival day, NCSR “Demokritos” Animal House Facility). Well-palpable tumors (0.42 ± 0.37/0.25 ± […], respectively) were grown at the inoculation site 3–4 weeks later, and biodistribution was conducted. On the day of biodistribution, animals were divided into groups of four and received the radioligand through the tail vein as a bolus (100 μL, containing each of: i. 78–91 kBq [^67Ga]GAS1/2/3 corresponding to 7–17 pmol GAS1/2/3; ii. 74–92 kBq [^111In]GAS1/2/3 corresponding to 20–25 pmol GAS1/2/3; iii. 730 kBq [^177Lu]Lu-GAS1/3 corresponding to 40 pmol GAS1/3, in-vehicle: saline/EtOH 9/1 v/v). Animals were euthanized at predetermined time intervals depending upon the radionuclide applied (for [^67Ga]Ga-GAS1/2/3: 1, 4 and 24 h pi; for [^111In]In-GAS1/2/3: 4 and 24 h pi–two extra groups of mice receiving gelofusine together with [^111In]In-GAS1/2 at 4 and 24 h pi were included; and for [^177Lu]Lu-GAS1/3: 4, 24, 48, 72 and 96 h pi). Mice were dissected, and blood samples, organs of interest and tumors were rapidly collected, weighted and counted in the gamma counter. Biodistribution data was calculated as the percentage of the administered dose per gram tissue (%IA/g) with the aid of suitable standards of the administered dose and the Microsoft Excel program. Results are presented as mean % IA/g values ± SD, n = 4 per time point, as determined by the PRISM^TM 6.0 GraphPad software (San Diego, CA, USA).

Intact radioligand in blood ([1]; mice blood collected 5 min pi): 81.1 ± 8.2 (3) %
Intact radioligand in urine ([1]; mice urine collected 30 min pi): 79.2 ± 10.3 (3) %
Biodistribution, Blood ([2]; 4 h pi): 0.99 ± 0.20 %IA/g
Biodistribution, CCK2i4svR(+) Tumor ([2]; 4 h pi): 8.74 ± 1.60 %IA/g
Biodistribution, CCK2i4svR(-) Tumor ([2]; 4 h pi): 1.01 ± 0.30 %IA/g
Biodistribution, Femur ([2]; 4 h pi): 0.28 ± 0.03 %IA/g
Biodistribution, Heart ([2]; 4 h pi): 0.41 ± 0.07 %IA/g
Biodistribution, Intestines ([2]; 4 h pi): 1.65 ± 0.28 %IA/g
Biodistribution, Kidneys ([2]; 4 h pi): 3.70 ± 0.62 %IA/g
Biodistribution, Liver ([2]; 4 h pi): 2.21 ± 0.44 %IA/g
Biodistribution, Lungs ([2]; 4 h pi): 0.94 ± 0.15 %IA/g
Biodistribution, Muscle ([2]; 4 h pi): 0.12 ± 0.02 %IA/g
Biodistribution, Pancreas ([2]; 4 h pi): 0.56 ± 0.11 %IA/g
Biodistribution, Spleen ([2]; 4 h pi): 0.59 ± 0.07 %IA/g
Biodistribution, Stomach ([2]; 4 h pi): 0.37 ± 0.05 %IA/g
Biodistribution, Blood ([2]; 24 h pi): 0.06 ± 0.00 %IA/g
Biodistribution, CCK2i4svR(+) Tumor ([2]; 24 h pi): 2.09 ± 0.50 %IA/g
Biodistribution, CCK2i4svR(-) Tumor ([2]; 24 h pi): 0.29 ± 0.20 %IA/g
Biodistribution, Femur ([2]; 24 h pi): 0.11 ± 0.01 %IA/g
Biodistribution, Heart ([2]; 24 h pi): 0.12 ± 0.00 %IA/g
Biodistribution, Intestines ([2]; 24 h pi): 0.32 ± 0.07 %IA/g
Biodistribution, Kidneys ([2]; 24 h pi): 1.05 ± 0.12 %IA/g
Biodistribution, Liver ([2]; 24 h pi): 0.51 ± 0.07 %IA/g
Biodistribution, Lungs ([2]; 24 h pi): 0.34 ± 0.03 %IA/g
Biodistribution, Muscle ([2]; 24 h pi): 0.04 ± 0.00 %IA/g
Biodistribution, Pancreas ([2]; 24 h pi): 0.10 ± 0.01 %IA/g
Biodistribution, Spleen ([2]; 24 h pi): 0.32 ± 0.01 %IA/g
Biodistribution, Stomach ([2]; 24 h pi): 0.14 ± 0.03 %IA/g
Biodistribution, Blood ([2]; 48 h pi): 0.04 ± 0.01 %IA/g
Biodistribution, CCK2i4svR(+) Tumor ([2]; 48 h pi): 0.97 ± 0.20 %IA/g
Biodistribution, CCK2i4svR(-) Tumor ([2]; 48 h pi): 0.17 ± 0.02 %IA/g
Biodistribution, Femur ([2]; 48 h pi): 0.09 ± 0.01 %IA/g
Biodistribution, Heart ([2]; 48 h pi): 0.07 ± 0.01 %IA/g
Biodistribution, Intestines ([2]; 48 h pi): 0.08 ± 0.01 %IA/g
Biodistribution, Kidneys ([2]; 48 h pi): 0.38 ± 0.07 %IA/g
Biodistribution, Liver ([2]; 48 h pi): 0.32 ± 0.04 %IA/g
Biodistribution, Lungs ([2]; 48 h pi): 0.29 ± 0.04 %IA/g
Biodistribution, Muscle ([2]; 48 h pi): 0.03 ± 0.00 %IA/g
Biodistribution, Pancreas ([2]; 48 h pi): 0.05 ± 0.01 %IA/g
Biodistribution, Spleen ([2]; 48 h pi): 0.26 ± 0.06 %IA/g
Biodistribution, Stomach ([2]; 48 h pi): 0.08 ± 0.01 %IA/g
Biodistribution, Blood ([2]; 72 h pi): 0.04 ± 0.00 %IA/g
Biodistribution, CCK2i4svR(+) Tumor ([2]; 72 h pi): 0.35 ± 0.23 %IA/g
Biodistribution, CCK2i4svR(-) Tumor ([2]; 72 h pi): 0.18 ± 0.05 %IA/g
Biodistribution, Femur ([2]; 72 h pi): 0.06 ± 0.00 %IA/g
Biodistribution, Heart ([2]; 72 h pi): 0.05 ± 0.01 %IA/g
Biodistribution, Intestines ([2]; 72 h pi): 0.06 ± 0.02 %IA/g
Biodistribution, Kidneys ([2]; 72 h pi): 0.14 ± 0.04 %IA/g
Biodistribution, Liver ([2]; 72 h pi): 0.23 ± 0.02 %IA/g
Biodistribution, Lungs ([2]; 72 h pi): 0.21 ± 0.03 %IA/g
Biodistribution, Muscle ([2]; 72 h pi): 0.02 ± 0.00 %IA/g
Biodistribution, Pancreas ([2]; 72 h pi): 0.03 ± 0.00 %IA/g
Biodistribution, Spleen ([2]; 72 h pi): 0.51 ± 0.71 %IA/g
Biodistribution, Stomach ([2]; 72 h pi): 0.05 ± 0.01 %IA/g
Biodistribution, Blood ([2]; 96 h pi): 0.04 ± 0.00 %IA/g
Biodistribution, CCK2i4svR(+) Tumor ([2]; 96 h pi): 0.56 ± 0.25 %IA/g
Biodistribution, CCK2i4svR(-) Tumor ([2]; 96 h pi): 0.11 ± 0.04 %IA/g
Biodistribution, Femur ([2]; 96 h pi): 0.05 ± 0.01 %IA/g
Biodistribution, Heart ([2]; 96 h pi): 0.04 ± 0.00 %IA/g
Biodistribution, Intestines ([2]; 96 h pi): 0.08 ± 0.05 %IA/g
Biodistribution, Kidneys ([2]; 96 h pi): 0.10 ± 0.04 %IA/g
Biodistribution, Liver ([2]; 96 h pi): 0.19 ± 0.02 %IA/g
Biodistribution, Lungs ([2]; 96 h pi): 0.17 ± 0.02 %IA/g
Biodistribution, Muscle ([2]; 96 h pi): 0.02 ± 0.01 %IA/g
Biodistribution, Pancreas ([2]; 96 h pi): 0.03 ± 0.01 %IA/g
Biodistribution, Spleen ([2]; 96 h pi): 0.14 ± 0.02 %IA/g
Biodistribution, Stomach ([2]; 96 h pi): 0.05 ± 0.01 %IA/g
SMILES: CC(C)(C)C(=O)CN1C(=O)[C@H](NC(=O)Nc2cccc(C(=O)NCCOCCOCCOCCNC(=O)[C@H](CCC(=O)O)NC(=O)CN3CCN(CC(=O)[O-])CCN(CC(=O)[O-])CCN(CC(=O)[O-])CC3)c2)CN(C2CCCCC2)c2ccccc21.[177Lu+3] (stereo in doubt) [[^177Lu]Lu-GAS1]
Background clearance / excretion route ([2]; mouse, in vivo): rapid background clearance predominantly via the kidneys
